This is an account of results in ChEMBL document CHEMBL1156075, “5,5'- and 6,6'-dialkyl-5,6-dihydro-1H-pyridin-2-ones as potent inhibitors of HCV NS5B polymerase” (Bioorg Med Chem Lett, 2009).

A short description of data set [1]: in vitro. The following applies: human, Huh7/C24 cells.
Description: Cytotoxicity against human Huh7/C24 cells after 72 hrs by bDNA assay
Data set [2] is described as follows: in vitro. The following applies: human, liver microsomes.
A further data set relates to Hepatitis C virus. Description: microbe, parasite or virus in culture. The following applies: genotype 1b, Huh-7, 72 h.
Data set [3] can be described thus: in vitro. The following applies: human, liver microsomes. The source holds these as a separate data set. (In general: Liver microsomes are vesicles of endoplasmic reticulum, rich in cytochrome P450 enzymes.)
Data set [4] can be described thus: in vitro. The following applies: human, liver microsomes. This is another data set of the same source.

Usually CC50 stands for the concentration at which the toxic effect on the cells reaches its halfway point. Read a high CC50 as lower toxicity to the cells. Usually half-life stands for the time in which the quantity being followed falls by half. The EC50 is the concentration that produces a half-maximal response. Higher therefore signals weaker potency.

SMILES strings stand for the structures. Where only a bound is given, the exact number is not on record here.

On to `CC[C@H]1CC(O)=C(C2=Nc3ccc(NS(C)(=O)=O)cc3S(=O)(=O)N2)C(=O)N1Cc1ccc(F)cc1`, for which, in “in vitro [1]”, the CC50 at 72 h is above 1 µM. In addition, the half-life at 5 µM in the data set “in vitro [2]” is above 60 min. Also, the midpoint of the response in the data set with Hepatitis C virus, the EC50, lay at 0.083 µM.

`C[C@@]1(Cc2ccc(F)cc2)CN(C2CC2)C(=O)C(C2=NS(=O)(=O)c3cc(NS(C)(=O)=O)ccc3N2)=C1O` displayed a CC50 at 72 h in “in vitro [1]” above 33 µM. In the data set on Hepatitis C virus, this compound returned an EC50 of 2.1 µM.

`CC(C)CC[C@@H]1CN(C2CCCC2)C(=O)C(C2=NS(=O)(=O)c3cc(NS(C)(=O)=O)ccc3N2)=C1O` came in with a CC50 at 72 h in “in vitro [1]” above 33 µM. For the same compound, the half-life at 5 µM in “in vitro [2]” worked out at 32 min. In the data set with Hepatitis C virus, this compound gave an EC50 of 0.043 µM.

On to `CC(C)CC[C@]1(C)CN(C2CCCCC2)C(=O)C(C2=NS(=O)(=O)c3cc(NS(C)(=O)=O)ccc3N2)=C1O`, for which the CC50 at 72 h in “in vitro [1]” was above 33 µM. Besides, the half-life at 5 µM in the data set “in vitro [2]” is above 3.6 min. The compound also gave an EC50 in the data set on Hepatitis C virus of 0.025 µM.

Compound `CS(=O)(=O)Nc1ccc2c(c1)S(=O)(=O)N=C(C1=C(O)C[C@@H](c3ccc(F)cc3)N(Cc3ccc(F)cc3)C1=O)N2` displayed a half-maximal cytotoxic concentration (CC50) at 72 h in the data set “in vitro [1]” above 10 µM. This compound also returned a half-life at 5 µM in the data set “in vitro [2]” above 60 min. The same compound returned an EC50 in the data set on Hepatitis C virus of 0.52 µM.

In “in vitro [1]”, `CS(=O)(=O)Nc1ccc2c(c1)S(=O)(=O)N=C(C1=C(O)C3(CC3)CN(Cc3ccc(F)cc3)C1=O)N2` came in with a cytotoxic concentration (CC50) at 72 h above 1 µM. The compound also came in with a half-life at 5 µM in “in vitro [2]” above 60 min. Further, in the data set with Hepatitis C virus, the 50% effective concentration (EC50) is 0.55 µM.

`CC(C)=CC[C@H]1CN(Cc2ccc(F)cc2)C(=O)C(C2=NS(=O)(=O)c3cc(NS(C)(=O)=O)ccc3N2)=C1O`: the CC50 at 72 h in “in vitro [1]” is above 33 µM. In “in vitro [2]”, the half-life at 5 µM worked out at 6.9 min. This compound yielded an EC50 in the data set on Hepatitis C virus of 0.67 µM.

For the compound `CC[C@@H]1CC(O)=C(C2=NS(=O)(=O)c3cc(NS(C)(=O)=O)ccc3N2)C(=O)N1Cc1ccc(F)cc1`, the half-life at 5 µM in the data set “in vitro [2]” was above 60 min. In addition, the EC50 in the data set on Hepatitis C virus amounted to 0.97 µM.

Regarding `CC(C)CC[C@H]1CN(Cc2ccc(F)cc2)C(=O)C(C2=NS(=O)(=O)c3cc(NS(C)(=O)=O)ccc3N2)=C1O`, the CC50 at 72 h in “in vitro [1]” was above 33 µM. This compound yielded a half-life at 5 µM in “in vitro [2]” of 6.5 min. The compound further gave an EC50 in the data set on Hepatitis C virus of 0.49 µM.

`C[C@@]1(Cc2ccc(F)cc2)CN(C2CCCC2)C(=O)C(C2=NS(=O)(=O)c3cc(NS(C)(=O)=O)ccc3N2)=C1O` returned a CC50 at 72 h in “in vitro [1]” above 33 µM. Moreover, the EC50 in the data set on Hepatitis C virus was 14 µM.

For `CC(C)CC[C@]1(C)CN(C2CC2)C(=O)C(C2=NS(=O)(=O)c3cc(NS(C)(=O)=O)ccc3N2)=C1O`, in the data set “in vitro [1]”, the half-maximal cytotoxic concentration (CC50) at 72 h was above 33 µM. Also, the half-life at 5 µM in “in vitro [2]” amounted to 5.5 min. Also, the EC50 in the data set with Hepatitis C virus was 0.097 µM.

Take `CC(C)(C)CC[C@]1(C)CN(C2CC2)C(=O)C(C2=NS(=O)(=O)c3cc(NS(C)(=O)=O)ccc3N2)=C1O`: in the data set “in vitro [1]”, the CC50 at 72 h was above 10 µM. Further, the half-life at 5 µM in “in vitro [2]” turned out to be 10 min. This compound also registered an EC50 with Hepatitis C virus of 0.33 µM.

In the case of `C[C@]1(CC2CC2)CN(Cc2ccc(F)cc2)C(=O)C(C2=NS(=O)(=O)c3cc(NS(C)(=O)=O)ccc3N2)=C1O`, the CC50 at 72 h in the data set “in vitro [1]” is above 33 µM. In “in vitro [2]”, this compound gave a half-life at 5 µM above 60 min. This compound also showed an EC50 in the data set with Hepatitis C virus of 0.2 µM.

In the case of `CC(C)CC[C@]1(C)CN(c2ccccc2)C(=O)C(C2=NS(=O)(=O)c3cc(NS(C)(=O)=O)ccc3N2)=C1O`, the half-life at 5 µM in the data set “in vitro [2]” is above 2.3 min.

In turn, `CS(=O)(=O)Nc1ccc2c(c1)S(=O)(=O)N=C(C1=C(O)C3(CCC3)CN(Cc3ccc(F)cc3)C1=O)N2` yielded a CC50 at 72 h in “in vitro [1]” above 33 µM. The compound further came in with a half-life at 5 µM in “in vitro [2]” above 60 min. For the same compound, in the data set with Hepatitis C virus, it took 0.77 µM to reach a half-maximal effect (EC50).

Regarding `C#CC[C@]1(C)CN(C2CCCC2)C(=O)C(C2=NS(=O)(=O)c3cc(NS(C)(=O)=O)ccc3N2)=C1O`, the CC50 at 72 h in “in vitro [1]” was above 33 µM. Besides, in the data set “in vitro [2]”, the half-life at 5 µM is 43 min. In the data set with Hepatitis C virus, this compound gave an EC50 of 2.9 µM.

In turn, `CC(C)CC[C@]1(C)CN(C2CCCC2)C(=O)C(C2=NS(=O)(=O)c3cc(NS(C)(=O)=O)ccc3N2)=C1O` gave a CC50 at 72 h in the data set “in vitro [1]” above 33 µM. In “in vitro [2]”, this compound showed a half-life at 5 µM above 2.6 min.

The compound `CC[C@@]1(C)CN(Cc2ccc(F)cc2)C(=O)C(C2=NS(=O)(=O)c3cc(NS(C)(=O)=O)ccc3N2)=C1O` registered a CC50 at 72 h in the data set “in vitro [1]” above 1 µM. The half-life at 5 µM in “in vitro [2]” was above 60 min. The midpoint of the response in the data set on Hepatitis C virus, the EC50, lay at 0.16 µM.

In “in vitro [2]”, `CC(C)CC[C@@H]1CC(O)=C(C2=NS(=O)(=O)c3cc(NS(C)(=O)=O)ccc3N2)C(=O)N1Cc1ccc(F)cc1` displayed a half-life at 5 µM of 7.6 min. Moreover, the response with Hepatitis C virus was half-maximal at 5.5 µM (EC50).

In the data set “in vitro [1]”, `CS(=O)(=O)Nc1ccc2c(c1)S(=O)(=O)N=C(C1=C(O)C[C@H](c3ccccc3)N(Cc3ccc(F)cc3)C1=O)N2` had a CC50 at 72 h above 10 µM. The half-life at 5 µM in “in vitro [2]” was above 60 min. The EC50 in the data set on Hepatitis C virus was found to be 0.66 µM.

As to `CCCC[C@]1(C)CN(C2CCC2)C(=O)C(C2=NS(=O)(=O)c3cc(NS(C)(=O)=O)ccc3N2)=C1O`, the half-life at 5 µM in “in vitro [3]” is above 60 min; in “in vitro [4]”, 3 min. Further, the EC50 with Hepatitis C virus was above 10 µM.

In “in vitro [2]”, `CC(C)C[C@@H]1CC(O)=C(C2=NS(=O)(=O)c3cc(NS(C)(=O)=O)ccc3N2)C(=O)N1Cc1ccc(F)cc1` returned a half-life at 5 µM above 60 min. In addition, the EC50 in the data set with Hepatitis C virus worked out at 2.9 µM.

Compound `CS(=O)(=O)Nc1ccc2c(c1)S(=O)(=O)N=C(C1=C(O)[C@@H](Cc3ccc(F)cc3)CN(Cc3ccc(F)cc3)C1=O)N2` yielded a CC50 at 72 h in the data set “in vitro [1]” above 33 µM. The same compound showed a half-life at 5 µM in the data set “in vitro [2]” above 60 min. Also, it took 3.6 µM to reach a half-maximal effect in the data set with Hepatitis C virus (EC50).

For the compound `CC(C)/C=C/C[C@@H]1CN(C2CCCC2)C(O)C(C2=NS(=O)(=O)c3cc(NS(C)(=O)=O)ccc3N2)=C1O` (stereo partly drawn), in “in vitro [1]”, the CC50 at 72 h is above 33 µM. The half-life at 5 µM in the data set “in vitro [2]” worked out at 35 min. The EC50 in the data set with Hepatitis C virus amounted to 0.24 µM.

On to `CS(=O)(=O)Nc1ccc2c(c1)S(=O)(=O)N=C(C1=C(O)C3(CCCC3)CN(Cc3ccc(F)cc3)C1=O)N2`, for which the CC50 at 72 h in “in vitro [1]” is above 33 µM. The compound further displayed a half-life at 5 µM in “in vitro [2]” of 28 min. The same compound showed an EC50 in the data set with Hepatitis C virus of 2.1 µM.

`CCC(CC)[C@@H]1CC(O)=C(C2=NS(=O)(=O)c3cc(NS(C)(=O)=O)ccc3N2)C(=O)N1Cc1ccc(F)cc1` gave a CC50 at 72 h in “in vitro [1]” above 1 µM. The compound further returned a half-life at 5 µM in “in vitro [2]” of 59 min. The same compound had an EC50 in the data set on Hepatitis C virus of 0.31 µM.

In turn, `CC1(C)CN(Cc2ccc(F)cc2)C(=O)C(C2=NS(=O)(=O)c3cc(NS(C)(=O)=O)ccc3N2)=C1O` came in with a CC50 at 72 h in the data set “in vitro [1]” above 33 µM. In addition, in “in vitro [2]”, the half-life at 5 µM was above 60 min. The compound further displayed an EC50 in the data set with Hepatitis C virus of 1.3 µM.

Compound `CC(C)(C)[C@H]1CC(O)=C(C2=NS(=O)(=O)c3cc(NS(C)(=O)=O)ccc3N2)C(=O)N1Cc1ccc(F)cc1` displayed a CC50 at 72 h in the data set “in vitro [1]” above 10 µM. Besides, in “in vitro [2]”, the half-life at 5 µM is above 60 min. The EC50 in the data set with Hepatitis C virus is 0.81 µM.

For `CC(C)[C@H]1CC(O)=C(C2=NS(=O)(=O)c3cc(NS(C)(=O)=O)ccc3N2)C(=O)N1Cc1ccc(F)cc1`, in the data set “in vitro [1]”, the CC50 at 72 h is above 1 µM. The compound also yielded a half-life at 5 µM in “in vitro [2]” above 60 min. The EC50 in the data set with Hepatitis C virus worked out at 0.045 µM.

As to `CS(=O)(=O)Nc1ccc2c(c1)S(=O)(=O)N=C(C1=C(O)CC3(CCCC3)N(Cc3ccc(F)cc3)C1=O)N2`, the CC50 at 72 h in the data set “in vitro [1]” is above 33 µM. In addition, in “in vitro [2]”, the half-life at 5 µM is above 60 min. In the data set with Hepatitis C virus, this compound displayed an EC50 of 0.84 µM.

`CS(=O)(=O)Nc1ccc2c(c1)S(=O)(=O)N=C(C1=C(O)CCN(Cc3ccc(F)cc3)C1=O)N2` yielded a CC50 at 72 h in the data set “in vitro [1]” above 33 µM. In “in vitro [2]”, the half-life at 5 µM is above 60 min. This compound also yielded an EC50 in the data set on Hepatitis C virus of 3.9 µM.

With `CC(C)CC[C@@]1(C)CN(Cc2ccc(F)cc2)C(=O)C(C2=NS(=O)(=O)c3cc(NS(C)(=O)=O)ccc3N2)=C1O`, the CC50 at 72 h in “in vitro [1]” was above 33 µM. This compound also returned a half-life at 5 µM in “in vitro [2]” of 5.7 min. Further, the EC50 with Hepatitis C virus turned out to be 0.77 µM.
